In PubChem BioAssay AID1918935 (Molecular Pharmacology Branch, DTP, NCI, 2023):

Test system: 324938-238-R-J1-PDC complex spheroid viability
Assay: Anticancer human tumor 324938-238-R-J1-PDC patient-derived bladder carcinoma cell line growth inhibition
Settings: for IC50: curve of first compound; for viability, T/C: stronger effect = lower value; active = viability on the fitted dose curve at most 10% of control; inactive = the rest
How it was run: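 Multicellular complex spheroids of tumor cells with human endothelial cells (HUVEC) and mesenchymal stem cells; the LSD1 inhibitor iadademstat was combined with standard-of-care or investigational agents. Top concentration at or near clinical Cmax, half-log dilutions; final DMSO ≤0.25%.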

[1] = second compound 0.1 µM, first compound 0.0316 µM
[2] = second compound 0.1 µM, first compound 0.1 µM
[3] = second compound 0.316 µM, first compound 0.0316 µM
[4] = second compound 0.316 µM, first compound 0.1 µM
[5] = second compound 1 µM, first compound 0.0316 µM
[6] = second compound 1 µM, first compound 0.1 µM
[7] = second compound 3.16 µM, first compound 0.0316 µM
[8] = second compound 3.16 µM, first compound 0.1 µM
[9] = second compound 10 µM, first compound 0.0316 µM
[10] = second compound 10 µM, first compound 0.1 µM
[11] = second compound 0.1 µM, first compound 0.000949 µM
[12] = second compound 0.1 µM, first compound 0.003 µM
[13] = second compound 0.1 µM, first compound 0.00949 µM
[14] = second compound 0.1 µM, first compound 0.03 µM
[15] = second compound 0.1 µM, first compound 0.0949 µM
[16] = second compound 0.1 µM, first compound 0.3 µM
[17] = second compound 0.316 µM, first compound 0.000949 µM
[18] = second compound 0.316 µM, first compound 0.003 µM
[19] = second compound 0.316 µM, first compound 0.00949 µM
[20] = second compound 0.316 µM, first compound 0.03 µM
[21] = second compound 0.316 µM, first compound 0.0949 µM
[22] = second compound 0.316 µM, first compound 0.3 µM
[23] = second compound 1 µM, first compound 0.000949 µM
[24] = second compound 1 µM, first compound 0.003 µM
[25] = second compound 1 µM, first compound 0.00949 µM
[26] = second compound 1 µM, first compound 0.03 µM
[27] = second compound 1 µM, first compound 0.0949 µM
[28] = second compound 1 µM, first compound 0.3 µM
[29] = second compound 3.16 µM, first compound 0.000949 µM
[30] = second compound 3.16 µM, first compound 0.003 µM
[31] = second compound 3.16 µM, first compound 0.00949 µM
[32] = second compound 3.16 µM, first compound 0.03 µM
[33] = second compound 3.16 µM, first compound 0.0949 µM
[34] = second compound 3.16 µM, first compound 0.3 µM
[35] = second compound 10 µM, first compound 0.000949 µM
[36] = second compound 10 µM, first compound 0.003 µM
[37] = second compound 10 µM, first compound 0.00949 µM
[38] = second compound 10 µM, first compound 0.03 µM
[39] = second compound 10 µM, first compound 0.0949 µM
[40] = second compound 10 µM, first compound 0.3 µM
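Also: spheroids also contain HUVEC and human MSCs and agents combined with iadademstat; spheroids exposed to agents for 7 days before readout.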

CC(C)CC(NC(=O)C(Cc1ccccc1)NC(=O)c1cnccn1)B(O)O (stereo not given) + NC1CCC(NC2CC2c2ccccc2)CC1
0.442 nM: IC50 (second compound 3.16 µM)
0.434 nM: IC50 (second compound 10 µM)
0.472 nM: IC50 (second compound 0.1 µM)
active: viability, T/C (second compound 0.1 µM, first compound 0.00316 µM) 0.06% | viability, T/C (second compound 0.1 µM, first compound 0.01 µM) 0.03% | viability, T/C [1] 0.03% | viability, T/C [2] 0.15% | viability, T/C (second compound 0.316 µM, first compound 0.00316 µM) 0.14% | viability, T/C (second compound 0.316 µM, first compound 0.01 µM) 0.01% | viability, T/C [3] 0.02% | viability, T/C [4] 0.12% | viability, T/C (second compound 1 µM, first compound 0.00316 µM) 0.1% | viability, T/C (second compound 1 µM, first compound 0.01 µM) 0.01% | viability, T/C [5] 0.73% | viability, T/C [6] 0.11% | viability, T/C (second compound 3.16 µM, first compound 0.00316 µM) 0.43% | viability, T/C (second compound 3.16 µM, first compound 0.01 µM) 0.02% | viability, T/C [7] 0.03% | viability, T/C [8] 0.12% | viability, T/C (second compound 10 µM, first compound 0.00316 µM) 0.12% | viability, T/C (second compound 10 µM, first compound 0.01 µM) 0.29% | viability, T/C [9] 0.1% | viability, T/C [10] 0.17%
0.483 nM: IC50 (second compound 1 µM)
inactive: viability, T/C (second compound 0.1 µM, first compound 0.000316 µM) 66.8% | viability, T/C (second compound 0.1 µM, first compound 0.001 µM) 18.7% | viability, T/C (second compound 0.316 µM, first compound 0.000316 µM) 64.9% | viability, T/C (second compound 0.316 µM, first compound 0.001 µM) 14.3% | viability, T/C (second compound 1 µM, first compound 0.000316 µM) 72.2% | viability, T/C (second compound 1 µM, first compound 0.001 µM) 12.1% | viability, T/C (second compound 3.16 µM, first compound 0.000316 µM) 65% | viability, T/C (second compound 3.16 µM, first compound 0.001 µM) 13.8% | viability, T/C (second compound 10 µM, first compound 0.000316 µM) 65% | viability, T/C (second compound 10 µM, first compound 0.001 µM) 10.8%
0.443 nM: IC50 (second compound 0.316 µM)

CCc1c2c(nc3ccc(O)cc13)-c1cc3c(c(=O)n1C2)COC(=O)[C@]3(O)CC + NC1CCC(NC2CC2c2ccccc2)CC1
inactive: viability, T/C [29] 9.74% | viability, T/C [35] 9.49%
active: viability, T/C [11] 8.91% | viability, T/C [12] 8.28% | viability, T/C [13] 5.05% | viability, T/C [14] 2.05% | viability, T/C [15] 0.06% | viability, T/C [16] 0.13% | viability, T/C [17] 7.86% | viability, T/C [18] 10.2% | viability, T/C [19] 6.24% | viability, T/C [20] 2.68% | viability, T/C [21] 0.06% | viability, T/C [22] 0.11% | viability, T/C [23] 8.46% | viability, T/C [24] 8.97% | viability, T/C [25] 6.82% | viability, T/C [26] 2.81% | viability, T/C [27] 0.06% | viability, T/C [28] 0.1% | viability, T/C [30] 9.76% | viability, T/C [31] 7.3% | viability, T/C [32] 2.95% | viability, T/C [33] 0.08% | viability, T/C [34] 0.11% | viability, T/C [36] 9.84% | viability, T/C [37] 8.1% | viability, T/C [38] 2.75% | viability, T/C [39] 0.08% | viability, T/C [40] 0.13%
< 0.949 nM: IC50 (second compound 0.1 µM) | IC50 (second compound 0.316 µM) | IC50 (second compound 1 µM) | IC50 (second compound 3.16 µM) | IC50 (second compound 10 µM)

Nc1ccccc1NC(=O)c1ccc(CNC(=O)OCc2cccnc2)cc1 + NC1CCC(NC2CC2c2ccccc2)CC1
375 nM: IC50 (second compound 10 µM)
412 nM: IC50 (second compound 0.1 µM)
inactive: viability, T/C [13] 92% | viability, T/C [14] 81.6% | viability, T/C [15] 68.5% | viability, T/C [16] 54.4% | viability, T/C (second compound 0.1 µM, first compound 0.949 µM) 39.9% | viability, T/C (second compound 0.1 µM, first compound 3 µM) 17.2% | viability, T/C [19] 84.3% | viability, T/C [20] 88% | viability, T/C [21] 67.6% | viability, T/C [22] 55% | viability, T/C (second compound 0.316 µM, first compound 0.949 µM) 34.6% | viability, T/C (second compound 0.316 µM, first compound 3 µM) 12.9% | viability, T/C [25] 79% | viability, T/C [26] 76.2% | viability, T/C [27] 73.3% | viability, T/C [28] 54.5% | viability, T/C (second compound 1 µM, first compound 0.949 µM) 39.2% | viability, T/C (second compound 1 µM, first compound 3 µM) 14.9% | viability, T/C [31] 81.5% | viability, T/C [32] 72.4% | viability, T/C [33] 62% | viability, T/C [34] 54.9% | viability, T/C (second compound 3.16 µM, first compound 0.949 µM) 37.9% | viability, T/C (second compound 3.16 µM, first compound 3 µM) 16% | viability, T/C [37] 76.8% | viability, T/C [38] 68.9% | viability, T/C [39] 68.2% | viability, T/C [40] 50.5% | viability, T/C (second compound 10 µM, first compound 0.949 µM) 37.8% | viability, T/C (second compound 10 µM, first compound 3 µM) 12.4%
390 nM: IC50 (second compound 0.316 µM)
465 nM: IC50 (second compound 1 µM)
363 nM: IC50 (second compound 3.16 µM)

Nc1ccn(C2OC(CO)C(O)C2(F)F)c(=O)n1 (stereo not given) + NC1CCC(NC2CC2c2ccccc2)CC1
active: viability, T/C [11] 7.42% | viability, T/C [12] 7.71% | viability, T/C [13] 7.38% | viability, T/C [14] 6.53% | viability, T/C [15] 5.05% | viability, T/C [16] 5.23% | viability, T/C [18] 7.95% | viability, T/C [19] 6.91% | viability, T/C [20] 7.37% | viability, T/C [21] 5.53% | viability, T/C [22] 5.05% | viability, T/C [24] 9.08% | viability, T/C [25] 8.5% | viability, T/C [26] 7.08% | viability, T/C [27] 5.53% | viability, T/C [28] 5.33% | viability, T/C [30] 8.82% | viability, T/C [31] 9.28% | viability, T/C [32] 7.53% | viability, T/C [33] 5.27% | viability, T/C [34] 5.32% | viability, T/C [36] 9.1% | viability, T/C [37] 9.36% | viability, T/C [38] 8.14% | viability, T/C [39] 4.93% | viability, T/C [40] 5.8%
inactive: viability, T/C [17] 10.3% | viability, T/C [23] 9.63% | viability, T/C [29] 10.8% | viability, T/C [35] 11.8%
< 0.949 nM: IC50 (second compound 0.1 µM) | IC50 (second compound 0.316 µM) | IC50 (second compound 1 µM) | IC50 (second compound 3.16 µM) | IC50 (second compound 10 µM)

O=C(c1cc(Cc2n[nH]c(=O)c3ccccc23)ccc1F)N1CCN(C(=O)C2CC2)CC1 + NC1CCC(NC2CC2c2ccccc2)CC1
2480 nM: IC50 (second compound 10 µM)
inactive: viability, T/C [1] 80.8% | viability, T/C [2] 80.9% | viability, T/C (second compound 0.1 µM, first compound 0.316 µM) 86.4% | viability, T/C (second compound 0.1 µM, first compound 1 µM) 68.1% | viability, T/C (second compound 0.1 µM, first compound 3.16 µM) 49.9% | viability, T/C (second compound 0.1 µM, first compound 10 µM) 41.5% | viability, T/C [3] 78.7% | viability, T/C [4] 82.7% | viability, T/C (second compound 0.316 µM, first compound 0.316 µM) 83.7% | viability, T/C (second compound 0.316 µM, first compound 1 µM) 64.4% | viability, T/C (second compound 0.316 µM, first compound 3.16 µM) 49.8% | viability, T/C (second compound 0.316 µM, first compound 10 µM) 36.5% | viability, T/C [5] 77.7% | viability, T/C [6] 71.3% | viability, T/C (second compound 1 µM, first compound 0.316 µM) 80% | viability, T/C (second compound 1 µM, first compound 1 µM) 69.3% | viability, T/C (second compound 1 µM, first compound 3.16 µM) 53.3% | viability, T/C (second compound 1 µM, first compound 10 µM) 37.9% | viability, T/C [7] 73.2% | viability, T/C [8] 74.1% | viability, T/C (second compound 3.16 µM, first compound 0.316 µM) 73.2% | viability, T/C (second compound 3.16 µM, first compound 1 µM) 71% | viability, T/C (second compound 3.16 µM, first compound 3.16 µM) 46.9% | viability, T/C (second compound 3.16 µM, first compound 10 µM) 39.6% | viability, T/C [9] 70.6% | viability, T/C [10] 65.8% | viability, T/C (second compound 10 µM, first compound 0.316 µM) 77% | viability, T/C (second compound 10 µM, first compound 1 µM) 59.3% | viability, T/C (second compound 10 µM, first compound 3.16 µM) 49.9% | viability, T/C (second compound 10 µM, first compound 10 µM) 45.1%
3970 nM: IC50 (second compound 1 µM)
2760 nM: IC50 (second compound 0.316 µM)
2720 nM: IC50 (second compound 3.16 µM)
2900 nM: IC50 (second compound 0.1 µM)
